Data: US12392781B2, “Deuterated indole heptamethine cyanine dyes” (University of Notre Dame du Lac, priority 2021, dated 2025)
“Also recorded” adds a separate entry of the source.

What was measured:
[1] = Stability of 1.0 mM aqueous solutions stored at 4° C. in the dark (1H NMR); type: physicochemical; details: for Purity of aqueous solution: 1.0 mM
Protocol: After 7 days and 28 days (separate samples), 1 mL aliquots were taken from each stock solution, the solutions were lyophilized, the solid residue was dissolved in methanol-d4 and ^1H NMR spectra were acquired.
After 7 days and 28 days (separate samples), 1 mL aliquots were taken from each stock solution, the solutions were lyophilized, the solid residue dissolved in methanol-d4 and ^1H NMR spectra were acquired.

[2] = Photobleaching under high intensity irradiation (150 W Xenon lamp, 620 nm long-pass filter); details: 6 h irradiation, 1.0 mM or 0.05 mM in water or ethanol, TLC
[3] = Photophysical properties at room temperature (absorption, fluorescence, quantum yield); type: physicochemical; details: for λ abs max / λ em max / ε: room temperature; for ε: Beer-Lambert fit 1-5 μM; for ΦF (fluorescence quantum yield): absolute (integrating sphere) for ICG, ICG-d5, ICG-d7, relative to ICG for 1; for Brightness: in M^-1 cm^-1 (unit assumed)
Protocol: Reagents and solvents were purchased from Sigma-Aldrich, VWR, Oakwood, Thermo Fisher and used without further purification unless stated otherwise. Column chromatography was performed using Biotage Sfär C18 Duo columns (part #FSUD-0401). Reverse- phase thin layer chromatography (TLC) experiments were performed on C18 TLC plates with F254s indicator (MilliporeSigma, part #1.15683). ^1H NMR spectra were recorded on a Bruker 500 NMR spectrometer. Chemical shifts are presented in ppm and referenced by residual solvent peak. High-resolution mass spectrometry (HRMS) was performed using a time-of-flight (TOF) analyzer with electrospray ionization (ESI), with sample dilution in water/acetonitrile as the standard produre. Electronic absorption spectra were recorded on an Evolution 201 UV/vis spectrometer with Thermo Insight software. Fluorescence spectra were collected on a Horiba Fluoromax-4 fluorometer with a maximum detection wavelength of 850 nm. Analyte solutions were prepared on the lab bench (exposed to air and light) using in HPLC grade water (Sigma-Aldrich), dimethylsulfoxide (Sigma-Aldrich), pH 7.4 1× phosphate buffered saline (Thermo Fisher) or fetal bovine serum (Sigma-Aldrich). Stock solutions for spectroscopy studies were prepared and used within 2 hours. All absorption and fluorescence spectra were collected using quartz cuvettes (1 mL, 1 cm path length).
Samples were excited at 730 nm with optical density≤0.05. First, photons were recorded with an integrating sphere after the excitation of a blank solvent reference, then the reference was replaced by a sample solution, and the spectrum (720-875 nm) was acquired again. The quantum yield was calculated by the equation below:
[formula] where P is the number of photons, F is the fluorescence intensity and E is the intensity at the excitation wavelength. Experiments were conducted in triplicate, with the reported absolute quantum yields corresponding to the mean value±standard deviation.
The fluorescence spectrum of each solution was obtained with excitation at 720 nm, and the integrated area was used to calculate the quantum yield according to the following equation:
[formula] where η is the refractive index of the solvent, I is the integrated fluorescence intensity, and A is the absorbance at a chosen wavelength. The estimated error for this method is ±15%.

[4] = 20 μg/mL solution in water, 24 hours; cited from earlier work
[5] = target: bovine serum albumin (BSA) (Bos taurus, UniProt P02769); test: Bovine serum albumin (BSA) binding by tryptophan fluorescence quenching titration; details: pH 7.4 PBS buffer, 37° C.; for Association constant Ka, titration isotherm fitted to 1:1 model: N=3
bovine serum albumin (BSA), sequence (P02769 25-607): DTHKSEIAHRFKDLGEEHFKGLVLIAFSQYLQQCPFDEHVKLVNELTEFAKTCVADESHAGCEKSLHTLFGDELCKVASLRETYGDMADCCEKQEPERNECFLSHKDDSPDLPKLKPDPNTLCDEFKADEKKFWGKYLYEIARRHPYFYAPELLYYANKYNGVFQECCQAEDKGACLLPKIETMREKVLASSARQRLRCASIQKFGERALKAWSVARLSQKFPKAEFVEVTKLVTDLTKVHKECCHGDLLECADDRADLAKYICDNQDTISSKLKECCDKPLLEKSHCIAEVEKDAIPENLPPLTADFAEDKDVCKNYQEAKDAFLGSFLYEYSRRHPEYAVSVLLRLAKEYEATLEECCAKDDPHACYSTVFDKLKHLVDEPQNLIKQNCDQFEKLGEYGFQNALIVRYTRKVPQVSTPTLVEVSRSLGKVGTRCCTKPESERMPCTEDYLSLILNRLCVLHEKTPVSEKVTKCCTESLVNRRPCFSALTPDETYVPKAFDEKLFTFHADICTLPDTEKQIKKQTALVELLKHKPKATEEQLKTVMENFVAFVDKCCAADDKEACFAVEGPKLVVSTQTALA
Protocol: The titration experiments measured quenching of bovine serum albumin (BSA, 1 mL of 2 μM solution in pH 7.4 PBS buffer) tryptophan fluorescence at 37° C. as dye was added incrementally. A fluorescence spectrum (ex: 280 nm, slit width: 2 nm) was acquired after each dye aliquot was added (2 μL of 1 mM dye stock solutions in water). After each aliquot addition, the solution was mixed and allowed to equilibrate at 37° C. for 5 min before spectral acquisition. Association constants were determined by plotting the change in fluorescence intensity at 345 nm verses molar equivalents using 1:1 binding stoichiometry on the BindFit software. Experiments were done in triplicates. Equations for determining association and dissociation constant are shown below:
[formula] [formula] where F is the fluorescence intensity of tryptophan after adding certain amount of dye, k is the proportionality constant for BSA tryptophan under the experimental condition, Ka is the association constant, [BSA]

[6] = cited from earlier work
[7] = Stability of 1.0 mM aqueous stock solutions at room temperature under low photon intensity storage (1H NMR, reverse phase TLC); details: for Stability of stored stock solution, ICG versus ICG-d5 (degradation to oxidative dimer): one week; for Stability of stored stock solution, ICG versus ICG-d5 (degradation to oxidative dimer) / Conversion to oxidative dimer: reverse phase TLC; for Conversion to oxidative dimer: 3-day old 1.0 mM stock solution, primarily in the dark at room temperature
Protocol: Every day, a 50 μL aliquot was removed from each stock solution, lyophilized, and stored as a solid at −20° C.
At each time point, a 1.0 mL aliquot was taken from the stock solution, the aliquot was lyophilized, the solid residue was dissolved in 0.60 mL of methanol-d4, and a ^1H NMR spectrum was acquired.
The solutions were stored at room temperature and low photon intensity conditions (only exposed to lab lights during sample preparation and when aliquots were removed from samples). After 72 h and 120 h, 1 mL aliquots were taken from each stock solution and lyophilized. In each case, the solid residue was dissolved in 0.6 mL of methanol-d4 and a ^1H NMR spectrum was recorded.
The second set of dye stability experiments were designed to mimic the low photon intensity storage conditions experienced by a typical reconstituted dose in water before it is administered in a clinical setting. Thus, stock solutions of the dyes were exposed to the atmosphere and laboratory lights during the initial reconstitution and periodic sampling, but otherwise stored as capped vials in the dark at room temperature.

[8] = 1.0 mM in water, room temperature, low photon intensity, storage 72 h, 1H NMR
[9] = 1.0 mM in water, room temperature, low photon intensity, storage 120 h, 1H NMR
[10] = 1.0 mM in water, room temperature

Structure (SMILES) | Purity of aqueous solution ([1]; 7 days storage) [%] | Purity of aqueous solution ([1]; 28 days storage) [%] | λ abs max ([3]; DMSO) [nm] | λ em max ([3]; DMSO) [nm] | ε ([3]; DMSO) | ΦF (fluorescence quantum yield) ([3]; DMSO) [%] | Brightness ([3]; DMSO) | λ abs max ([3]; FBS) [nm] | λ em max ([3]; FBS) [nm] | ε ([3]; FBS) | ΦF (fluorescence quantum yield) ([3]; FBS) [%] | Brightness ([3]; FBS) | Association constant Ka, titration isotherm fitted to 1:1 model [5] | Weight percentage remaining in aqueous stock solution [7, 8] [wt %] | Weight percentage remaining in aqueous stock solution [7, 9] [wt %] | Stability of stored stock solution, ICG versus ICG-d5 (degradation to oxidative dimer) [7, 10] | Conversion to oxidative dimer [7] [%] | other results
CC1(C)C(/C=C/C=C/C=C/C=C2/N(CCCCS(=O)(=O)[O-])c3ccc4ccccc4c3C2(C)C)=[N+](CCCCS(=O)(=O)[O-])c2ccc3ccccc3c21.[Na+] [ICG, Indocyanine Green, reference compound] | 85 | 52 | 795 | 820 | 224,000 M^−1cm^−1 | 16.7 ± 0.6 | 37,000 | 800 | 813 | 197,000 M^−1cm^−1 | 9.7 ± 0.4 | 19,000 | (3.4±0.5)×10^5 M^−1 | 73.6 ± 1.7 | 67.4 ± 1.0 | more degradation | ~20 | Photostability versus concentration and solvent [2]: 1.0 mM ICG solution in water is more photostable than a 0.05 mM ICG solution in water; ICG remaining [4]: 20%; Water solubility [6]: 1000 µg/mL; Effect of H2O2 on formation of oxidative dimer 1 ([7]; 1.0 mM in water, 5 h, H2O2 10 molar equivalents, TLC): higher amount of oxidative dimer 1; Effect of air and light exposure on formation of oxidative dimer 1 ([7]; 1.0 mM in water, 30 h, room temperature, TLC and NMR): inhibits formation of oxidative dimer 1; Effect of additives on dimerization to oxidative dimer 1 ([7]; 1 mM in water, additives 10 molar equivalents, 24 h, room temperature, low photon intensity, TLC): promoted by the presence of NaI; also recorded: stopped by base (NaHCO3 and NaOAc), singlet oxygen quencher (NaN3) and reductant (Na2SO3 and Na ascorbate); Dimerization in water versus ethanol ([7]; 1.0 mM, 48 h, room temperature, low photon intensity, TLC): favored in water; Degradation to oxidative dimer 1 versus concentration ([7]; water, different concentrations, 72 h, room temperature, low photon intensity, 1H NMR): slower at higher concentrations
[2H]C(=C\C1=[N+](CCCCS(=O)(=O)[O-])c2ccc3ccccc3c2C1(C)C)/C([2H])=C([2H])/C([2H])=C([2H])/C=C1/N(CCCCS(=O)(=O)[O-])c2ccc3ccccc3c2C1(C)C.[Na+] [ICG-d5, Indocyanine Green-d5] | 99 | 85 | 793 | 819 | 253,000 M^−1cm^−1 | 19.8 ± 0.5 | 49,000 | 796 | 813 | 205,000 M^−1cm^−1 | 10.5 ± 0.3 | 21,000 | (3.8±0.6)×10^5 M^−1 | 86.0 ± 0.8 | 80.9 ± 1.2 | substantially more stable | ~2 | Stability of stock solution in a refrigerator ([1]; 7 and 28 days): increased stability in a refrigerator
CC1(C)C(=CC=CC=C(C=CC2=[N+](CCCCS(=O)(=O)[O-])c3ccc4ccccc4c3C2(C)C)C(C=CC2=[N+](CCCCS(=O)(=O)[O-])c3ccc4ccccc4c3C2(C)C)=CC=CC=C2N(CCCCS(=O)(=O)O)c3ccc4ccccc4c3C2(C)C)N(CCCCS(=O)(=O)O)c2ccc3ccccc3c21 [compound 1] | – | – | – | – | – | – | – | – | – | – | – | – | – | – | – | – | – | Kd ([5]; fluorescence titration, 2 μM BSA, read-out: Dissociation constant (Kd) of BSA binding): 34 µM
